Like-named read-outs stand apart in the source and are kept apart here.
Tests used:
PIM-3 = PIM-3 (Homo sapiens (Human), UniProt Q86V86); experiment: PIM-3 biochemical assay (ADP Hunter); conditions: semi-quantitative; read-out: PIM3 IC50
PIM-1 = PIM-1 (Homo sapiens (Human), UniProt P11309); experiment: PIM-1 biochemical assay (ADP Hunter)
PIM-2 = PIM-2 (Homo sapiens (Human), UniProt Q9P1W9); experiment: PIM-2 biochemical assay (ADP Hunter); conditions: semi-quantitative; read-out: PIM2 IC50
Source text: The biochemical assay to measure PIM-2 activity relies on the ADP Hunter assay kit (DiscoveRx Corp., Cat. #90-0077), that determines the amount of ADP as direct product of the kinase enzyme activity.

[1] = system: Bad S112 phosphorylation in H1299 cells overexpressing Pim1 (H1299Pim1); experiment: Bad S112 phosphorylation inhibition assay (In Cell ELISA); format: cell-based; conditions: read-out: EC50 BadP ELISA H1299 Pim1
Protocol: Efficacy of compounds of the invention on the inhibition of Bad phosphorylation was measured by an In Cell ELISA. EC50 values were established for the tested compounds.
Cells: H1299 cells overexpressing Pim1 (H1299Pim1)
Cells were seeded in 15000 cells per 200 μl per well into 96-well plates and incubated for 16 h at 37° C., 5% CO2. On day two, nine serial 1:2 compound dilutions were made in DMSO in a 96-well plate. The compounds were added to duplicate wells in 96-well cell plates using a FX BECKMAN robot (Beckman Coulter) and incubated at 37° C. with CO2 atmosphere. After 4 hours, relative levels of Bad S112 phosphorylation were measured in Cell ELISA using SuperSignal ELISA Femto substrate (Pierce) and read on VICTOR (Perkin Elmer). EC50 values were calculated using ActivityBase from IDBS.

[2] = read-out: PIM1 IC50, semi-quantitative
[3] = Homo sapiens, NCI-H1299, semi-quantitative

PIM-1, sequence (P11309 whole entry): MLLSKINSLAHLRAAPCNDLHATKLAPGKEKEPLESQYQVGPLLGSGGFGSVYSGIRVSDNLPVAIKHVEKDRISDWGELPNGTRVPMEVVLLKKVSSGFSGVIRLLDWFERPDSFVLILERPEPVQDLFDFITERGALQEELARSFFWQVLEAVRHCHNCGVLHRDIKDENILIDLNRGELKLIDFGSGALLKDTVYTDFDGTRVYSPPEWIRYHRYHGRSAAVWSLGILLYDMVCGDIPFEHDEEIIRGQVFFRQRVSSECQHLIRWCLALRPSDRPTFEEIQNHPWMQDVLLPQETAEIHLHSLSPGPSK
PIM-2, sequence (Q9P1W9 whole entry): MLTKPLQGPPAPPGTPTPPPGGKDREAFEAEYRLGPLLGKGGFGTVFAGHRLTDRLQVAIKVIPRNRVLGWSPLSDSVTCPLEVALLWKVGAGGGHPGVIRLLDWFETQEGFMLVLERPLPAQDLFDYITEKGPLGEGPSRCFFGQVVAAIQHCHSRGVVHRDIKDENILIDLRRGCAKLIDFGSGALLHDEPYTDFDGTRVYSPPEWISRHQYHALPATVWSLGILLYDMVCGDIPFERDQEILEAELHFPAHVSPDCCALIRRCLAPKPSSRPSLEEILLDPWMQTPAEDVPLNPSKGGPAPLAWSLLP

CN1CCC(Nc2nn3c(-c4cccc(OC(F)(F)F)c4)nnc3c3c2N(C)CCO3)CC1 [Example 2, (1-Methyl-piperidin-4-yl)-[6-methyl-3-(3-trifluoromethoxy-phenyl)-7,8-dihydro-6H-9-oxa-1,2,3a,4,6-pentaaza-cyclopenta[a]naphthalen-5-yl]-amine]
IC50 (PIM-3): 100 to 1000 nM | IC50 (PIM-1; [2]): < 100 nM | IC50 (PIM-2): 100 to 1000 nM | EC50 [1, 3]: 250 to 1000 nM

CN1CCOc2c1c(N1CCC(N(C)C)CC1)nn1c(-c3cccc(OC(F)(F)F)c3)nnc21 [Example 5, Dimethyl-{1-[6-methyl-3-(3-trifluoromethoxy-phenyl)-7,8-dihydro-6H-9-oxa-1,2,3a,4,6-pentaaza-cyclopenta[a]naphthalen-5-yl]-piperidin-4-yl}-amine]
IC50 (PIM-3): 100 to 1000 nM | IC50 (PIM-1): < 100 nM | IC50 (PIM-2): 100 to 1000 nM | EC50 [1, 3]: 250 to 1000 nM

CN1CCOc2c1c(NCC1CC1)nn1c(-c3cccc(OC(F)(F)F)c3)nnc21 [Example 7, Cyclopropylmethyl-[6-methyl-3-(3-trifluoromethoxy-phenyl)-7,8-dihydro-6H-9-oxa-1,2,3a,4,6-pentaaza-cyclopenta[a]naphthalen-5-yl]-amine]
IC50 (PIM-3): < 100 nM | IC50 (PIM-1): < 100 nM | IC50 (PIM-1; read-out: PIM1 IC50): 25.2 nM | IC50 (PIM-2): 100 to 1000 nM | EC50 [1, 3]: 1000 to 10000 nM

CN1CCC(CNc2nn3c(-c4cccc(OC(F)(F)F)c4)nnc3c3c2OCCN3C)CC1 [Example 17, (1-Methyl-piperidin-4-ylmethyl)-[9-methyl-3-(3-trifluoromethoxy-phenyl)-8,9-dihydro-7H-6-oxa-1,2,3a,4,9-pentaaza-cyclopenta[a]naphthalen-5-yl]-amine]
IC50 (PIM-3): 100 to 1000 nM | IC50 (PIM-1; [2]): < 100 nM | IC50 (PIM-2): > 1000 nM | EC50 [1, 3]: 1000 to 10000 nM

CN1CCOc2c(N[C@H]3CC[C@H](O)CC3)nn3c(-c4cccc(OC(F)(F)F)c4)nnc3c21 [Example 20, 4-[9-Methyl-3-(3-trifluoromethoxy-phenyl)-8,9-dihydro-7H-6-oxa-1,2,3a,4,9-pentaaza-cyclopenta[a]naphthalen-5-ylamino]-cyclohexanol]
IC50 (PIM-3): 100 to 1000 nM | IC50 (PIM-1): 100 to 1000 nM | IC50 (PIM-2): > 1000 nM | EC50 [1, 3]: 250 to 1000 nM

CN1CCOc2c1c(NCCN1CCOCC1)nn1c(-c3cccc(OC(F)(F)F)c3)nnc21 [Example 29, [6-Methyl-3-(3-trifluoromethoxy-phenyl)-5,6,7,8-tetrahydro-9-oxa-1,2,3a,4,6-pentaaza-cyclopenta[a]naphthalen-5-yl]-(2-morpholin-4-yl-ethyl)-amine]
IC50 (PIM-3): 100 to 1000 nM | IC50 (PIM-2): 100 to 1000 nM | EC50 [1, 3]: < 250 nM

CN1CCC(CNc2nn3c(-c4cccc(C#N)c4)nnc3c3c2N(C)CCO3)CC1 [Example 31, 3-{6-Methyl-5-[(1-methyl-piperidin-4-ylmethyl)-amino]-7,8-dihydro-6H-9-oxa-1,2,3a,4,6-pentaaza-cyclopenta[a]naphthalen-3-yl}-benzonitrile]
IC50 (PIM-3): 100 to 1000 nM | IC50 (PIM-1): 100 to 1000 nM | IC50 (PIM-2): > 1000 nM | EC50 [1, 3]: 1000 to 10000 nM

CN1CCC(CNc2nn3c(-c4cccc(N(C)C)c4)nnc3c3c2N(C)CCO3)CC1 [Example 34, [3-(3-Dimethylamino-phenyl)-6-methyl-7,8-dihydro-6H-9-oxa-1,2,3a,4,6-pentaaza-cyclopenta[a]naphthalen-5-yl]-(1-methyl-piperidin-4-ylmethyl)-amine]
IC50 (PIM-3): 100 to 1000 nM | IC50 (PIM-1; [2]): < 100 nM | IC50 (PIM-2): > 1000 nM | EC50 [1, 3]: 1000 to 10000 nM

CC1CN(C)c2c(NCC3CCN(C)CC3)nn3c(-c4cccc(OC(F)(F)F)c4)nnc3c2O1 (stereo not drawn) [Example 40, [6,8-Dimethyl-3-(3-trifluoromethoxy-phenyl)-7,8-dihydro-6H-9-oxa-1,2,3a,4,6-pentaaza-cyclopenta[a]naphthalen-5-yl]-(1-methyl-piperidin-4-ylmethyl)-amine]
IC50 (PIM-3): < 100 nM | IC50 (PIM-1; [2]): < 100 nM | IC50 (PIM-2): 100 to 1000 nM | EC50 [1, 3]: 250 to 1000 nM

COc1ccc(-c2nnc3c4c(c(N5CCC(CN)CC5)nn23)N(C)CCO4)cc1 [Example 52, C-{1-[3-(4-Methoxy-phenyl)-6-methyl-7,8-dihydro-6H-9-oxa-1,2,3a,4,6-pentaaza-cyclopenta[a]naphthalen-5-yl]-piperidin-4-yl}-methylamine]
IC50 (PIM-3): > 1000 nM | IC50 (PIM-1; [2]): 100 to 1000 nM | IC50 (PIM-2): > 1000 nM | EC50 ([1]; semi-quantitative): 1000 to 10000 nM

CN1CCOc2c(N3CCC(CN)CC3)nn3c(-c4cccc(OC(F)(F)F)c4)nnc3c21 [Example 57, C-{1-[9-Methyl-3-(3-trifluoromethoxy-phenyl)-8,9-dihydro-7H-6-oxa-1,2,3a,4,9-pentaaza-cyclopenta[a]naphthalen-5-yl]-piperidin-4-yl}-methylamine]
IC50 (PIM-3): > 1000 nM | IC50 (PIM-1; [2]): < 100 nM | IC50 (PIM-2): > 1000 nM | EC50 [1, 3]: 1000 to 10000 nM

CN1CCOc2c(NCC3CCNCC3)nn3c(-c4cccc(OC(F)(F)F)c4)nnc3c21 [Example 58, [9-Methyl-3-(3-trifluoromethoxy-phenyl)-8,9-dihydro-7H-6-oxa-1,2,3a,4,9-pentaaza-cyclopenta[a]naphthalen-5-yl]-piperidin-4-ylmethyl-amine]
IC50 (PIM-3): 100 to 1000 nM | IC50 (PIM-1; [2]): < 100 nM | IC50 (PIM-2): > 1000 nM | EC50 [1, 3]: 1000 to 10000 nM

CN1CCOc2c1c(N1CCCC3(CCCN3)CC1)nn1c(-c3cccc(OC(F)(F)F)c3)nnc21 (stereo not drawn) [Example 60, 5-(1,8-Diaza-spiro[4.6]undec-8-yl)-6-methyl-3-(3-trifluoromethoxy-phenyl)-7,8-dihydro-6H-9-oxa-1,2,3a,4,6-pentaaza-cyclopenta[a]naphthalene]
IC50 (PIM-1; [2]): < 100 nM | IC50 (PIM-2): 100 to 1000 nM | EC50 [1, 3]: < 250 nM

CNC1CCN(c2nn3c(-c4cccc(OC(F)(F)F)c4)nnc3c3c2N(C)CCO3)CC1 [Example 62, Methyl-{1-[6-methyl-3-(3-trifluoromethoxy-phenyl)-7,8-dihydro-6H-9-oxa-1,2,3a,4,6-pentaaza-cyclopenta[a]naphthalen-5-yl]-piperidin-4-yl}-amine]
IC50 (PIM-3): < 100 nM | IC50 (PIM-1; [2]): < 100 nM | IC50 (PIM-2): 100 to 1000 nM | EC50 [1, 3]: < 250 nM

CN1CCOc2c(NC3CC4(CCNCC4)C3)nn3c(-c4cccc(OC(F)(F)F)c4)nnc3c21 [Example 65, (7-Aza-spiro[3.5]non-2-yl)-[9-methyl-3-(3-trifluoromethoxy-phenyl)-8,9-dihydro-7H-6-oxa-1,2,3a,4,9-pentaaza-cyclopenta[a]naphthalen-5-yl]-amine]
IC50 (PIM-3): 100 to 1000 nM | IC50 (PIM-1; [2]): < 100 nM | EC50 [1, 3]: 1000 to 10000 nM

CN1CCOc2c(N3CCC4(CC3)CC(N)C4)nn3c(-c4cccc(OC(F)(F)F)c4)nnc3c21 [Example 66, 7-[9-Methyl-3-(3-trifluoromethoxy-phenyl)-8,9-dihydro-7H-6-oxa-1,2,3a,4,9-pentaaza-cyclopenta[a]naphthalen-5-yl]-7-aza-spiro[3.5]non-2-ylamine]
IC50 (PIM-3): 100 to 1000 nM | IC50 (PIM-1; [2]): < 100 nM | IC50 (PIM-2): > 1000 nM | EC50 [1, 3]: 1000 to 10000 nM

CN1CCOc2c1c(N1CC3(CCCNC3)C1)nn1c(-c3cccc(OC(F)(F)F)c3)nnc21 [Example 69, 5-(2,6-Diaza-spiro[3.5]non-2-yl)-6-methyl-3-(3-trifluoromethoxy-phenyl)-7,8-dihydro-6H-9-oxa-1,2,3a,4,6-pentaaza-cyclopenta[a]naphthalene]
IC50 (PIM-1; [2]): < 100 nM | IC50 (PIM-2): 100 to 1000 nM | EC50 [1, 3]: < 250 nM

COc1ccc(-c2nnc3c4c(c(NCc5ccc(F)cc5)nn23)N(C)CCO4)cc1 [Example 81, (4-Fluoro-benzyl)-[3-(4-methoxy-phenyl)-6-methyl-7,8-dihydro-6H-9-oxa-1,2,3a,4,6-pentaaza-cyclopenta[a]naphthalen-5-yl]-amine]
IC50 (PIM-3): 100 to 1000 nM | IC50 (PIM-1; [2]): < 100 nM | IC50 (PIM-2): > 1000 nM | EC50 [1, 3]: 1000 to 10000 nM

CC(C)NCC1CCN(c2nn3c(-c4cccc(OC(F)(F)F)c4)nnc3c3c2OCCN3C)CC1 [Example 86, Isopropyl-{1-[9-methyl-3-(3-trifluoromethoxy-phenyl)-8,9-dihydro-7H-6-oxa-1,2,3a,4,9-pentaaza-cyclopenta[a]naphthalen-5-yl]-piperidin-4-ylmethyl}-amine]
IC50 (PIM-3): 100 to 1000 nM | IC50 (PIM-1): 100 to 1000 nM | IC50 (PIM-2): > 1000 nM | EC50 [1, 3]: 1000 to 10000 nM

CN1CCC(CNc2nn3c(-c4ccc(F)cc4)nnc3c3c2N(C)CCO3)CC1 [Example 100, [3-(4-Fluoro-phenyl)-6-methyl-7,8-dihydro-6H-9-oxa-1,2,3a,4,6-pentaaza-cyclopenta[a]naphthalen-5-yl]-(1-methyl-piperidin-4-ylmethyl)-amine]
IC50 (PIM-1): 100 to 1000 nM | IC50 (PIM-1; read-out: PIM1 IC50): 181 nM | IC50 (PIM-2): > 1000 nM | EC50 [1, 3]: 1000 to 10000 nM

FC(F)(F)Oc1cccc(-c2nnc3c4c(c(N5CCCCC5)nn23)OCCO4)c1 [Example 101, 5-Piperidin-1-yl-3-(3-trifluoromethoxy-phenyl)-7,8-dihydro-6,9-dioxa-1,2,3a,4-tetraaza-cyclopenta[a]naphthalene]
IC50 (PIM-3): 100 to 1000 nM | IC50 (PIM-1; [2]): < 100 nM | IC50 (PIM-2): 100 to 1000 nM | EC50 [1, 3]: 1000 to 10000 nM
